# From US4880817A, “O-functionalized derivatives of substituted isoquinolin-3-ols having cardiotonic and/or phosphodiesterase fraction III inhibiting properties and/or renal vasodilating properties” (Ortho Pharmaceutical Corporation, priority 1987, dated 1989)
# Tested on: adult mongrel dogs
# Assay: Renal vasodilating activity in anesthetized dogs
# Assay type: in vivo, mongrel dog
# Conditions: Canis lupus familiaris, dose 6.2 mpk, relative to controls, read-out: HR: percent change in heart rate
# Experimental: Goldberg et al., J. Pharmacol. Exp. Ther., 163, 188 (1968), performed an investigation of the structural requirements for dopamine-like renal vasodilation of phenethylamines and apomorphine. The following procedure is a variation of the assay described in that report.
# Adult mongrel dogs were anesthetized and surgically prepared for electromagnetic measurement of renal artery blood flow. A carotid artery was cannulated for measuring arterial blood pressure and drugs were administered intravenously or intraarterially (via the renal artery). Heart rate was monitored with a cardiotachometer. Renal vascular resistance was calculated as the ratio of mean arterial blood pressure to renal artery blood flow. Dopamine was infused intravenously at 3 μg/kg/min for ten minutes (at an infusion rate of about 1 ml/min) to determine responsiveness of each dog to renal dopamine receptor stimulation. Cumulative dose-response data were obtained by infusing a compound of this invention at progressively increasing (usually three-fold) infusion rates, each dose being infused for five minutes. The maximum percent change from pre-drug control in renal artery blood flow (or in renal vascular resistance) was determined for each infusion dose.
# RBF, RVR, MABP, and HR values are percent changes in renal blood flow, renal vascular resistance, mean arterial blood pressure, and heart rate, respectively, relative to control values.
row,SMILES,change in vivo at 6.2 mg/kg
1,CCOc1cc2c(C)nc(OS(=O)(=O)N(C)C)c([N+](=O)[O-])c2cc1OC [Cmpd 26],0%
2,"CCC(=O)Nc1c(OC(=O)CC)nc(C)c2cc(OC)c(OC)cc12 [Cmpd 33, 6,7-Dimethoxy-1-methyl-4-[N-propanamido]-3-propanoyloxyisoquinoline]",-9%

# Same assay, conditions: Canis lupus familiaris, dose 6.2 mpk, relative to controls, read-out: MABP: percent change in mean arterial blood pressure
row,SMILES,change in vivo at 6.2 mg/kg
1,CCOc1cc2c(C)nc(OS(=O)(=O)N(C)C)c([N+](=O)[O-])c2cc1OC [Cmpd 26],0%
2,"CCC(=O)Nc1c(OC(=O)CC)nc(C)c2cc(OC)c(OC)cc12 [Cmpd 33, 6,7-Dimethoxy-1-methyl-4-[N-propanamido]-3-propanoyloxyisoquinoline]",-9%

# Same assay, conditions: Canis lupus familiaris, dose 6.2 mpk, relative to controls, read-out: RBF: percent change in renal blood flow
row,SMILES,change in vivo at 6.2 mg/kg
1,CCOc1cc2c(C)nc(OS(=O)(=O)N(C)C)c([N+](=O)[O-])c2cc1OC [Cmpd 26],7%
2,"CCC(=O)Nc1c(OC(=O)CC)nc(C)c2cc(OC)c(OC)cc12 [Cmpd 33, 6,7-Dimethoxy-1-methyl-4-[N-propanamido]-3-propanoyloxyisoquinoline]",41%

# Same assay, conditions: Canis lupus familiaris, dose 6.2 mpk, relative to controls, read-out: RVR: percent change in renal vascular resistance
row,SMILES,change in vivo at 6.2 mg/kg
1,CCOc1cc2c(C)nc(OS(=O)(=O)N(C)C)c([N+](=O)[O-])c2cc1OC [Cmpd 26],-8%
2,"CCC(=O)Nc1c(OC(=O)CC)nc(C)c2cc(OC)c(OC)cc12 [Cmpd 33, 6,7-Dimethoxy-1-methyl-4-[N-propanamido]-3-propanoyloxyisoquinoline]",-35%

# Same assay, conditions: Canis lupus familiaris, read-out: HR: percent change in heart rate, dose 1.2 mpk, relative to controls
row,SMILES,change in vivo at 1.2 mg/kg
1,"COc1cc2c(C)nc(OC(=O)N3CCNCC3)c([N+](=O)[O-])c2cc1OC [Cmpd 70, 6,7-Dimethoxy-1-methyl-4-nitro-3-(1-piperazinyl)carbonyloxyisoquinoline]",20%
2,C=CCNC(=O)Nc1c(OC(=O)N(CC)CC)nc(C)c2cc(OCC)c(OC)cc12 [Cmpd 74],-16%

# Same assay, conditions: Canis lupus familiaris, read-out: HR: percent change in heart rate, dose 6.2 mpk, relative to controls
row,SMILES,change in vivo at 6.2 mg/kg
1,CCOc1cc2c(C)nc(OC(=O)N(C)C)c([N+](=O)[O-])c2cc1OC [Cmpd 10],10%

# Same assay, conditions: Canis lupus familiaris, read-out: MABP: percent change in mean arterial blood pressure, dose 1.2 mpk, relative to controls
row,SMILES,change in vivo at 1.2 mg/kg
1,"COc1cc2c(C)nc(OC(=O)N3CCNCC3)c([N+](=O)[O-])c2cc1OC [Cmpd 70, 6,7-Dimethoxy-1-methyl-4-nitro-3-(1-piperazinyl)carbonyloxyisoquinoline]",-1%
2,C=CCNC(=O)Nc1c(OC(=O)N(CC)CC)nc(C)c2cc(OCC)c(OC)cc12 [Cmpd 74],-2%

# Same assay, conditions: Canis lupus familiaris, read-out: MABP: percent change in mean arterial blood pressure, dose 6.2 mpk, relative to controls
row,SMILES,change in vivo at 6.2 mg/kg
1,CCOc1cc2c(C)nc(OC(=O)N(C)C)c([N+](=O)[O-])c2cc1OC [Cmpd 10],-12%

# Same assay, conditions: Canis lupus familiaris, read-out: RBF: percent change in renal blood flow, dose 1.2 mpk, relative to controls
row,SMILES,change in vivo at 1.2 mg/kg
1,"COc1cc2c(C)nc(OC(=O)N3CCNCC3)c([N+](=O)[O-])c2cc1OC [Cmpd 70, 6,7-Dimethoxy-1-methyl-4-nitro-3-(1-piperazinyl)carbonyloxyisoquinoline]",26%
2,C=CCNC(=O)Nc1c(OC(=O)N(CC)CC)nc(C)c2cc(OCC)c(OC)cc12 [Cmpd 74],15%

# Same assay, conditions: Canis lupus familiaris, read-out: RBF: percent change in renal blood flow, dose 6.2 mpk, relative to controls
row,SMILES,change in vivo at 6.2 mg/kg
1,CCOc1cc2c(C)nc(OC(=O)N(C)C)c([N+](=O)[O-])c2cc1OC [Cmpd 10],46%

# Same assay, conditions: Canis lupus familiaris, read-out: RVR: percent change in renal vascular resistance, dose 1.2 mpk, relative to controls
row,SMILES,change in vivo at 1.2 mg/kg
1,"COc1cc2c(C)nc(OC(=O)N3CCNCC3)c([N+](=O)[O-])c2cc1OC [Cmpd 70, 6,7-Dimethoxy-1-methyl-4-nitro-3-(1-piperazinyl)carbonyloxyisoquinoline]",-19%
2,C=CCNC(=O)Nc1c(OC(=O)N(CC)CC)nc(C)c2cc(OCC)c(OC)cc12 [Cmpd 74],-14%

# Same assay, conditions: Canis lupus familiaris, read-out: RVR: percent change in renal vascular resistance, dose 6.2 mpk, relative to controls
row,SMILES,change in vivo at 6.2 mg/kg
1,CCOc1cc2c(C)nc(OC(=O)N(C)C)c([N+](=O)[O-])c2cc1OC [Cmpd 10],-39%

# Tested on: adult mongrel dogs
# Assay: Acute in vivo cardiotonic activity in anesthetized dogs
# Parameters: species or system mongrel dog
# Conditions: Canis lupus familiaris, dose 1.87 mpk, iv, relative to controls, read-out: CF: percent change in cardiac force
# Experimental: The acute in vivo cardiotonic activity of compounds prepared according to the present invention was determined according to a modification of the procedure described by Alousi et al., Circ.
# In particular, adult mongrel dogs were anesthetized with sodium pentobarbital and were artificially respired. Arterial pressure was monitored via a femoral artery, and the pulse pressure was used to trigger a cardiotachometer for heart rate. Left ventricular pressure was determined with a Millar catheter, and dP/dT (the change in ventricular pressure with time) was derived. Cardiac output was determined by measuring ascending aortic blood flow with an electromagnetic flow probe, and myocardial contractile force was measured with a Walton Brodie strain gauge sutured to the right ventricle. Lead II EKG was also recorded.
# A standard dose (10 μg/kg/min) of dopamine was administered to assess myocardial responsiveness.
# Compounds of the invention were administered by intravenous infusion and the effects on cardiovascular parameters were determined.
row,SMILES,change in vivo at 1.87 mg/kg
1,CCOc1cc2c(C)nc(OC(=O)N(C)C)c([N+](=O)[O-])c2cc1OC [Cmpd 10],70%
2,"CCC(=O)Nc1c(OC(=O)CC)nc(C)c2cc(OC)c(OC)cc12 [Cmpd 33, 6,7-Dimethoxy-1-methyl-4-[N-propanamido]-3-propanoyloxyisoquinoline]",132%

# Same assay, conditions: Canis lupus familiaris, dose 1.87 mpk, iv, relative to controls, read-out: HR: percent change in heart rate
row,SMILES,change in vivo at 1.87 mg/kg
1,CCOc1cc2c(C)nc(OC(=O)N(C)C)c([N+](=O)[O-])c2cc1OC [Cmpd 10],-6%
2,"CCC(=O)Nc1c(OC(=O)CC)nc(C)c2cc(OC)c(OC)cc12 [Cmpd 33, 6,7-Dimethoxy-1-methyl-4-[N-propanamido]-3-propanoyloxyisoquinoline]",18%

# Same assay, conditions: Canis lupus familiaris, dose 1.87 mpk, iv, relative to controls, read-out: MABP: percent change in mean arterial blood pressure
row,SMILES,change in vivo at 1.87 mg/kg
1,CCOc1cc2c(C)nc(OC(=O)N(C)C)c([N+](=O)[O-])c2cc1OC [Cmpd 10],18%
2,"CCC(=O)Nc1c(OC(=O)CC)nc(C)c2cc(OC)c(OC)cc12 [Cmpd 33, 6,7-Dimethoxy-1-methyl-4-[N-propanamido]-3-propanoyloxyisoquinoline]",17%

# Same assay, conditions: Canis lupus familiaris, dose 1.87 mpk, iv, relative to controls, read-out: dP/dT: maximum percent change in left ventricular pressure with time
row,SMILES,change in vivo at 1.87 mg/kg
1,CCOc1cc2c(C)nc(OC(=O)N(C)C)c([N+](=O)[O-])c2cc1OC [Cmpd 10],91%
2,"CCC(=O)Nc1c(OC(=O)CC)nc(C)c2cc(OC)c(OC)cc12 [Cmpd 33, 6,7-Dimethoxy-1-methyl-4-[N-propanamido]-3-propanoyloxyisoquinoline]",84%

# Biological target: T1, Phosphodiesterase Fraction III (Canis lupus familiaris, UniProt A0A8I3NYE0)
# T1 construct: The fraction III enzyme was isolated as an isomzyme from the crude canine heart homogenate; from tissue; host or cells: canine heart (crude homogenate, ion exchange chromatography)
# T1 sequence (A0A8I3NYE0 1-1135): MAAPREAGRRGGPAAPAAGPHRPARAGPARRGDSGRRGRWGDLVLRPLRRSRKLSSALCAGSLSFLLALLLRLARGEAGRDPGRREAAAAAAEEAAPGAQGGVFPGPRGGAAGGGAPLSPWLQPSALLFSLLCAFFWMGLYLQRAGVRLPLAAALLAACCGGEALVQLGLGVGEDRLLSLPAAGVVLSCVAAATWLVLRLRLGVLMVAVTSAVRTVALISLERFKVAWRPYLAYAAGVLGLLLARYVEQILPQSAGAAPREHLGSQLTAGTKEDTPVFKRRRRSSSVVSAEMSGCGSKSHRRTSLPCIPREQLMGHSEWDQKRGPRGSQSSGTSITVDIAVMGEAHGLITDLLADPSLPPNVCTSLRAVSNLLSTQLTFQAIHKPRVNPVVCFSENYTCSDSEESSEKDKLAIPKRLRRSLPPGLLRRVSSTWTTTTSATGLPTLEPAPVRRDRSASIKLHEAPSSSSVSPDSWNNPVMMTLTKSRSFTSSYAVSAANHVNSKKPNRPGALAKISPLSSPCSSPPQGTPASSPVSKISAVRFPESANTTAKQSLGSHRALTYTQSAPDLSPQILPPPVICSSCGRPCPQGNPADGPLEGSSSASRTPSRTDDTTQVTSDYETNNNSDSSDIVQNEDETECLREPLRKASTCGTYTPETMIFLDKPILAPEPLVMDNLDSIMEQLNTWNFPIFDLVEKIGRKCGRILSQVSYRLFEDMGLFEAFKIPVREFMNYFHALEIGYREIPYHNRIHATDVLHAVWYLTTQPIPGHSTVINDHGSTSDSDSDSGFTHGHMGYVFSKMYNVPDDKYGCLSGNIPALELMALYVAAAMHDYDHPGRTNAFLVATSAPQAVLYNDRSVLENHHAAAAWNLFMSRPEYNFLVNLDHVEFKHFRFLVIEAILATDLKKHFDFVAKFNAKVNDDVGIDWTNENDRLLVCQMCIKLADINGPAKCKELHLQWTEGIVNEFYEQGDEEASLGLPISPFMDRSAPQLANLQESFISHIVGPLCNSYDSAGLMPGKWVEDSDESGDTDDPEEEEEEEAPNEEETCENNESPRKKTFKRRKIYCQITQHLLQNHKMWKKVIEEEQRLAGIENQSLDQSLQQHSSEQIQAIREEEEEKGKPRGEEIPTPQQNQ
# Assay: Inhibition of phosphodiesterase fraction III activity
# Assay type: biochemical, canine
# Conditions: not given
# Experimental: Thompson et al. described a cyclic nucleotide phosphodiesterase assay in Advances in Cyclic Nucleotide Research, Brooker et al., eds., 10, 69-92 (1979). The following procedure is based on that published assay and measures the ability of compounds to inhibit cyclic nucleotide phosphodiesterase which is an enzyme that converts either cyclic AMP or cyclic GMP to the noncyclized AMP or GMP, respectively.
# Compounds were tested at various concentrations in the presence of cyclic AMP (0.10-1.0 μM containing 0.2 microCuries ^3 H-cyclic AMP), cyclic nucleotide phosphodiesterase, and 0.05M Tris-Cl buffer (pH 7.4, containing 5 mM magnesium chloride). After a specified time, the reaction was stopped by heating to 100° C. for 1 minute. After cooling, 0.10 ml of a solution containing snake venom (1 mg/ml) was added, and the reaction was allowed to proceed for 30 min. Termination of this reaction was accomplished by the addition of 1.0 ml of 33 percent DOWEX AGl×8 resin slurry (Dow Chemical Co., Midland, MI) to separate the product from the unconverted substrate. An aliquot was removed from the supernatant and analyzed by liquid scintillation spectrometry.
# The fraction III enzyme was isolated as an isomzyme from the crude canine heart homogenate by ion exchange chromatography. The enzyme activity was designated fraction III since it is the third and last phosphodiesterase activity to be eluted from the chromatographic column. The fraction III enzyme has a relatively high affinity and specificity for the cyclic AMP.
# Data are presented as the IC50 which is the concentration (in micromoles) of a compound that was required to inhibit 50 percent of the cyclic nucleotide phosphodiesterase activity.
row,SMILES,IC50
1,CCOc1cc2c(C)nc(OC(=O)N(C)C)c([N+](=O)[O-])c2cc1OC [Cmpd 10],45 µM
2,"COc1cc2c(C)nc(OC(=O)N3CCNCC3)c([N+](=O)[O-])c2cc1OC [Cmpd 70, 6,7-Dimethoxy-1-methyl-4-nitro-3-(1-piperazinyl)carbonyloxyisoquinoline]",78 µM
3,C=CCNC(=O)Nc1c(OC(=O)N(CC)CC)nc(C)c2cc(OCC)c(OC)cc12 [Cmpd 74],115 µM

# Same assay, conditions: cyclic AMP 0.10-1.0 μM, pH 7.4; enzyme from canine heart homogenate; read-out: IC50
row,SMILES,IC50
1,CCOc1cc2c(C)nc(OS(=O)(=O)N(C)C)c([N+](=O)[O-])c2cc1OC [Cmpd 26],20.5 µM
